Experimental data taken from publication PMC8765320, “Identification of a Proteasome-Targeting Arylsulfonamide with Potential for the Treatment of Chagas’ Disease” (Antimicrobial Agents and Chemotherapy, 2022).
Where two headings read alike, the source gives them in different places.

Columns and labels:
[1] = tested on: T. cruzi amastigotes within Vero cells; test: Drug sensitivity assay against T. cruzi-infected Vero cells (intracellular amastigotes); format: cell-based, Trypanosoma cruzi; settings: for EC50: Trypanosoma cruzi, Vero
Method: The clonal Leishmania donovani cell line LdBOB (derived from MHOM/SD/62/1S-CL2D) was grown as either promastigotes or axenic amastigotes in media specific for each developmental stage, as previously described ([32]). T. cruzi epimastigotes from the Silvio strain (MHOM/BR/78/Silvio; clone X10/7A [33]) were grown at 28°C in RTH/FBS (RPMI 1640 medium supplemented with Trypticase, hemin, HEPES, and 10% heat-inactivated fetal calf serum (FCS) [Fisher Scientific]) ([34]). Bloodstream form T. brucei “single marker” S427 (T7RPOL TETR NEO) were cultured in the presence of G418 (15 μg ml^−1) at 37°C in HMI9-T media in the presence of 5% CO2. HepG2 cells (ECACC 85011430) were obtained from European Collection of Authenticated Cell Culture (ECACC). Cells were maintained in full growth medium (minimal essential medium [MEM] with GlutaMAX (Thermo Fisher), supplemented with 1% MEM nonessential amino acids (Sigma) and 10% heat-inactivated FBS and cultured at 37°C in the presence of 5% CO2. Cells were passaged twice weekly by detaching adherent cells with 0.05% trypsin/EDTA (Sigma) and diluted into fresh media. Cells were never grown beyond 80% confluence. Vero cells (African green monkey kidney cells; ECCAC 84113001) were maintained at 37°C, 5% CO2 in Dulbecco modified Eagle medium (DMEM; Lonza) supplemented with 10% FCS and subcultured every 2 days. T. cruzi metacyclic trypomastigotes were obtained from late-log-phase epimastigote cultures (initial inoculum, 10^6 ml^−1) after ca. 7 to 10 days at 28°C in RTH/FBS. Trypomastigote-rich cultures were incubated with Vero cells overnight at 37°C and 5% CO2 in DMEM/10% FCS. The following day, extracellular parasites were removed by washing the Vero cell monolayer three times. Infected monolayers were maintained at 37°C and in 5% CO2, DMEM/10% FCS was replaced every 48 h until the trypomastigotes reemerged from the Vero cells ([9]).
Drug sensitivity assays against T. cruzi-infected Vero cells were carried out as previously described ([37]); however, in this instance, assays were carried out in 96-well plates. Data were processed using GRAFIT (Erithacus software) and fitted to a two-parameter equation, as described above.

T. cruzi epimastigotes = test: T. cruzi epimastigote drug sensitivity assay (resazurin); format: cell-based, Trypanosoma cruzi; settings: for EC50: Trypanosoma cruzi; for susceptibility of CRISPR-edited epimastigotes: β4 F24L and I29M, at all of the concentrations tested
Method: To examine the effects of test compounds on the growth of T. cruzi epimastigotes, mid-log-phase parasites were seeded into 96-well plates at a cell density of 5 × 10^5 cells ml^−1. Cells were exposed to test compounds over a range of concentrations (2-fold serial dilutions). Cells were incubated for 4 days, and then 20 μl of 2.5 mM resazurin was added to each well, before measuring the fluorescence (excitation, 528 nm; emission, 590 nm), following a further 24 h of incubation. […] In this equation, [I] represents the inhibitor concentration, and m is the slope factor. Experiments were repeated at least two times, and the data are presented as means plus the standard deviations.

[2] = tested on: ubiquitinated proteins in T. cruzi epimastigotes; test: Accumulation of ubiquitinated proteins in treated epimastigotes (LC-MS/MS); format: cell-based, Trypanosoma cruzi; settings: epimastigotes pretreated 8 h at 3× EC50 (methods: 8× EC50); one biological replicate
Method: In cells where the function of the proteasome has been compromised, there is a concomitant build-up of ubiquitinated proteins earmarked for degradation. […] Control cultures were treated for the same period of time in the presence of dimethyl sulfoxide (DMSO). Enrichment of ubiquitinated proteins was achieved by immunoprecipitation using magnetic beads conjugated to an antibody specific for the remnant of ubiquitinated lysines following digestion with trypsin and/or LysC. We used liquid chromatography-tandem mass spectrometry (LC-MS/MS) to calculate the ubiquitination ratio of each sample by dividing the reporter intensity of ubiquitinated proteins by the reporter intensity of total protein (see Table S8). As expected, the accumulation of ubiquitinylated proteins was highest in epimastigotes treated with bortezomib (2.7-fold higher than in the DMSO-treated control), which is known to inhibit all three catalytic activities of the proteasome (Fig. 3). […] Similarly, ubiquitinated proteins accumulated to levels 1.9-fold higher in compound 1-treated parasites compared to those recovered from DMSO-treated control cells.
Controls were incubated in the presence of diluent (DMSO). Cells were harvested by centrifugation (1,912 × g, 15 min, 4°C) and washed with ice-cold PBS (1,912 × g, 5 min, 4°C); finally, the cell pellets were resuspended in 1.5 ml of ice-cold lysis buffer (1 mM EDTA, 1 mM DTT, 100 μM TLCK, and 1× Roche EDTA-free cOmplete protease inhibitor cocktail in 50 mM potassium phosphate buffer [pH 7.4]). Cell suspensions were submitted to three freeze-thaw cycles in a dry ice/ethanol bath to biologically inactivate the parasites and then lysed using a OneShot cell disruptor (Constant Systems) at 30 kpsi.
Cell lysates were centrifuged (100,000 × g, 20 min, 4°C), supernatants were collected, and the protein concentrations were determined by using a standard Bio-Rad protein assay. […]

Chagas' disease = settings: cited from earlier work
T. cruzi = settings: cited from earlier work
[3] = in Vero cells, cell line RES 1, read-out: EC50 values
[4] = in Vero cells, cell line RES 5, read-out: EC50 values
[5] = in Vero cells, cell line Wild-type, read-out: EC50 values
[6] = read-out: EC50 values, in Vero cells, cell line β4 F24L/I29M
[7] = cell line Wild type, read-out: Mean EC50 ± SD
[8] = read-out: Mean EC50 ± SD, cell line RES I (compound 1-resistant, β5 D225N)
[9] = read-out: Mean EC50 ± SD, cell line RES II (compound 1-resistant, β5 D225N)
[10] = read-out: Mean EC50 ± SD, cell line RES III (compound 1-resistant, β5 D225N)
[11] = read-out: Mean EC50 ± SD, cell line RES IV (compound 1-resistant, no proteasome mutation)
[12] = read-out: Mean EC50 ± SD, cell line RES V (compound 1-resistant, β4 I27T)
[13] = read-out: Mean EC50 ± SD, cell line Res I-β5 OE (β5 WT overexpressed in RES I)
[14] = read-out: Mean EC50 ± SD, cell line β4 F24L/I29M (CRISPR-edited)
[15] = read-out: Mean EC50 ± SD, cell line β5 D225N-OE (overexpressing mutated β5)

Row | Structure (SMILES) | EC50 [1, 3] | EC50 [1, 4] | EC50 [1, 5] | EC50 [1, 6] | EC50 (T. cruzi epimastigotes; [7]) | EC50 (T. cruzi epimastigotes; [8]) | EC50 (T. cruzi epimastigotes; [9]) | EC50 (T. cruzi epimastigotes; [10]) | EC50 (T. cruzi epimastigotes; [11]) | EC50 (T. cruzi epimastigotes; [12]) | EC50 (T. cruzi epimastigotes; [13]) | EC50 (T. cruzi epimastigotes; [14]) | EC50 (T. cruzi epimastigotes; [15]) | fold change versus the WT (T. cruzi epimastigotes; cell line RES I) | fold change versus the WT (T. cruzi epimastigotes; cell line RES II) | fold change versus the WT (T. cruzi epimastigotes; cell line RES III) | fold change versus the WT (T. cruzi epimastigotes; cell line RES IV) | fold change versus the WT (T. cruzi epimastigotes; cell line RES V) | fold change versus the WT (T. cruzi epimastigotes; cell line Res I-β5 OE) | fold change versus the WT (T. cruzi epimastigotes; cell line β4 F24L/I29M) | also measured
1 | CSc1ccc(OCc2ncc([N+](=O)[O-])n2C)cc1 [Fexinidazole, fexinidazole] | 8 ± 1 µM | 4 ± 0.7 µM | 4 ± 0.8 µM | 6 ± 0.6 µM | – | – | – | – | – | – | – | – | – | – | – | – | – | – | – | – | EC50 ([1]; in Vero cells, cell line ME OE, (*) one biological replicate, read-out: EC50 values): 5 ± 1 µM; EC50 ([1]; in Vero cells, cell line β5 OE rescue R1, (*) one biological replicate, read-out: EC50 values): 4 ± 0.6 µM; EC50 ([1]; read-out: EC50 values, in Vero cells, cell line β5 OE): 3 ± 0.3 µM; fold change versus WT ([1]; in Vero cells, cell line ME OE): 1 fold; fold change versus WT ([1]; in Vero cells, cell line RES 1): 2 fold; fold change versus WT ([1]; in Vero cells, cell line RES 5): 1 fold; fold change versus WT ([1]; in Vero cells, cell line Wild-type): 1 fold; fold change versus WT ([1]; in Vero cells, cell line β4 F24L/I29M): 2 fold; fold change versus WT ([1]; in Vero cells, cell line β5 D225N-OE): 1 fold; fold change versus WT ([1]; in Vero cells, cell line β5 OE): 1 fold; fold change versus WT ([1]; in Vero cells, cell line β5 OE rescue R1): 1 fold
2 | O=C(Nc1ccc(F)c(-c2cn3nc(-c4ccccc4)cnc3n2)c1)N1CCCC1 [Compound 2] | – | – | – | – | 0.04 ± 0.001 µM | 4 ± 0.08 µM | 5 ± 0.2 µM | 5 ± 0.4 µM | 0.1 ± 0.01 µM | 0.8 ± 0.03 µM | 0.3 ± 0.01 µM | > 10 µM | 2 ± 0.1 µM | 100 fold | 125 fold | 125 fold | 2.5 fold | 20 fold | 6.5 fold | > 250 fold | fold change versus the WT (T. cruzi epimastigotes; cell line β5 D225N-OE): 58 fold; susceptibility of CRISPR-edited epimastigotes (T. cruzi epimastigotes): refractory
3 | CC(C)C[C@H](NC(=O)[C@H](Cc1ccccc1)NC(=O)c1cnccn1)B(O)O [Bortezomib, bortezomib] | – | – | – | – | – | – | 0.3 ± 0.01 µM | – | 0.6 ± 0.05 µM | – | – | – | – | 1 fold | 1 fold | 1 fold | 2.5 fold | 1 fold | 1 fold | 1 fold | EC50 (T. cruzi epimastigotes; read-out: Mean EC50 ± SD, cell line Wild type): 0.2 ± 0.004 µM; fold change versus the WT (T. cruzi epimastigotes; cell line β5 D225N-OE): 1 fold; cross-resistance against RES I to V clones (T. cruzi epimastigotes; compound 1-resistant clones RES I to V): no evidence of cross-resistance; accumulation of ubiquitinated proteins versus DMSO-treated control [2]: 2.7 fold
4 | CC1CS(=O)(=O)CCN1/N=C/c1ccc([N+](=O)[O-])o1 (stereo not drawn) [nifurtimox] | – | – | – | – | – | – | – | – | – | – | – | – | – | – | – | – | – | – | – | – | individuals cured (Chagas' disease; in vivo): up to 70%
5 | O=C(Cn1ccnc1[N+](=O)[O-])NCc1ccccc1 [benznidazole] | – | – | – | – | – | – | – | – | – | – | – | – | – | – | – | – | – | – | – | – | interruption or discontinuation of treatment due to severe toxic side effects (Chagas' disease): ≤ 30 % of cases; individuals cured (Chagas' disease; prolonged treatment during the acute stage): up to 70%; outcome of modified treatment regimen in mouse models of infection (T. cruzi; higher doses given in pulses over prolonged periods): sterile parasitological cure
6 | Cc1nc(C)c(C(=O)Nc2ccc(F)c(-c3nc4ncc(-c5ccccn5)cn4n3)c2)o1 [GNF6702] | 16 ± 3 µM | 3 ± 0.4 µM | 0.2 ± 0.03 µM | > 1.5 µM | 0.3 ± 0.02 µM | > 10 µM | > 10 µM | > 10 µM | > 10 µM | 10 ± 0.2 µM | 2 ± 0.3 µM | > 10 µM | > 10 µM | – | – | – | – | – | – | – | susceptibility of CRISPR-edited epimastigotes (T. cruzi epimastigotes): refractory; treated mice with no detectable parasites in blood, colon, or heart tissue (T. cruzi; 10 mg kg−1 twice daily, after 4 weeks of immunosuppression): All but one of the eight; efficacy in a mouse model of infection (T. cruzi; dosed twice daily at 10 mg kg−1): matched the efficacy of benznidazole; accumulation of ubiquitinated proteins versus DMSO-treated control [2]: 1.45 fold; EC50 ([1]; in Vero cells, cell line β5 OE, read-out: EC50 values): 0.2 ± 0.1 µM; EC50 ([1]; read-out: EC50 values, in Vero cells, cell line β5 D225N-OE, (*) one biological replicate): > 5 µM
